For this test, the target named is Ribosomal protein S6 kinase alpha-3 (Homo sapiens, UniProt P51812). The test is described as follows: Kinase Glo Assay: Human RSK2 protein, purchased from Invitrogen, is used to measure kinase activity utilizing Kinase Glo Plus (Promega) a homogeneous assay technology, which uses a luciferin-luciferase based ATP detection reagent to quantify residual ATP. The assay is performed using 0.75 nM His-RSK2, 0.75 uM ATP and 1.0 uM S6 Kinase/RSK Substrate Peptide 1 (Upstate, catalog #12-124), in assay buffer consisting of 25 mM HEPES, pH 7.5, 10 mM MgCl2, 5 mM MnCl2, 50 mM KCl, 0.2% BSA, 0.01% CHAPS, 100 uM Na3VO4, 0.5 mM DTT, and 1% DMSO. Solutions of test compounds at various concentrations are prepared by 1:3 fold serial dilution of a 1 mM solution of compound in DMSO. The DMSO solutions are further diluted with assay buffer to a final concentration of DMSO of 5%.The assay is performed in a 384 well, white, non-binding plate (Corning, catalogue #3574). Solutions of test compounds (10 uL) are transferred to a dry assay plate, followed by addition of 20 uL kinase. Background: Kinase-Glo reads ATP consumption through a luciferase reaction.
Sequence of Ribosomal protein S6 kinase alpha-3 (P51812 whole entry): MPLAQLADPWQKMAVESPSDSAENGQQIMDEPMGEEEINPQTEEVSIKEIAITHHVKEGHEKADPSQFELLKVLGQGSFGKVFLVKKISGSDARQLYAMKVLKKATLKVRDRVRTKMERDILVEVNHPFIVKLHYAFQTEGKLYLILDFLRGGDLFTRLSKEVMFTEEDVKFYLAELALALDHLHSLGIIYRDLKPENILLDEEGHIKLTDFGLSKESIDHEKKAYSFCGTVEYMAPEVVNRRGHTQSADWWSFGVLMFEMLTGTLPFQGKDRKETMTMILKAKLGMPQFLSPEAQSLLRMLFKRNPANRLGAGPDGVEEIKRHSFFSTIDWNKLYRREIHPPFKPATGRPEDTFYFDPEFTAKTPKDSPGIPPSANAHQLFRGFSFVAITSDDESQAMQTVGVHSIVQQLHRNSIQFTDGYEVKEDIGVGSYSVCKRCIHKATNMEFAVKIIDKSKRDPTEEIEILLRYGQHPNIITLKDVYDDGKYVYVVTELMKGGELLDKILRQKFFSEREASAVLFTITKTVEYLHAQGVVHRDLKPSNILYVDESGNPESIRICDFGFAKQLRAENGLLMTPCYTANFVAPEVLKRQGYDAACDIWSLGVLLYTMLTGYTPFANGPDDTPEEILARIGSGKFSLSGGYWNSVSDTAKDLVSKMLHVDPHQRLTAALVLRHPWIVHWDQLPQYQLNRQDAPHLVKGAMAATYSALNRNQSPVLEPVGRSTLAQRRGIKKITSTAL

The values that follow come from ChEMBL document CHEMBL3639063, “Heterocyclic compounds containing a pyrrolopyridine or benzimidazole core” (2015).

On to `CC1(C)CNC(=O)c2cc3ccc(C(=O)Nc4cc(C(C)(C)C)on4)nc3n2C1`, for which the concentration for half-maximal inhibition (IC50) (commonly the concentration that gives 50% inhibition) was 175 nM. The figure for `O=C(Nc1cccc(-c2c[nH]cn2)c1)c1ccc2cc3n(c2n1)CCCNC3=O` is 17 nM.
